Patent US20060166985A1, “Pyrrolydin-2-one derivatives as inhibitors of thrombin and factor xa” (priority 2002, published 2006)
pKi: −log10 of the molar value.

Target: human Thrombin (Homo sapiens, UniProt P00734)
Experiment: In vitro assay for inhibition of Thrombin (chromogenic or fluorogenic assay)
Format: biochemical
Details: Example 2 chromogenic assay, other Examples fluorogenic assay, read-out: thrombin inhibitory Ki

pKi	Structure (SMILES)
> 7.00	O=C([C@H](c1cccs1)N1CC[C@H](NS(=O)(=O)CCc2ccc(Cl)cc2)C1=O)N1CCOCC1 [Example 74, 2-(4-chlorophenyl)-N-{(3S)-1-[(1R)-2-(4-morpholinyl)-2-oxo-1-(2-thienyl)ethyl]-2-oxo-3-pyrrolidinyl}ethanesulfonamide]
> 7.30	CCSC[C@@H](C(=O)N1CCOCC1)N1CC[C@H](NS(=O)(=O)CCc2ccc(Cl)s2)C1=O [Example 75, 2-(5-chloro-2-thienyl)-N-{(3S)-1-[(1R)-1-((ethylthio)methyl]-2-(4-morpholinyl)-2-oxoethyl]-2-oxo-3-pyrrolidinyl}ethanesulfonamide]
> 7.00	N#CC[C@@H](C(=O)N1CCOCC1)N1CC[C@H](NS(=O)(=O)CCc2ccc(Cl)s2)C1=O [Example 76, 2-(5-chloro-2-thienyl)-N-{(3S)-1-[(1S)-1-(cyanomethyl)-2-(4-morpholinyl)-2-oxoethyl]-2-oxo-3-pyrrolidinyl}ethanesulfonamide]
> 8.00	O=C([C@H](Cc1ncno1)N1CC[C@H](NS(=O)(=O)CCc2ccc(Cl)s2)C1=O)N1CCOCC1 [Example 77, 2-(5-chloro-2-thienyl)-N-{(3S)-1-[(1S)-2-(4-morpholinyl)-1-(1,2,4-oxadiazol-5-ylmethyl)-2-oxoethyl]-2-oxo-3-pyrrolidinyl}ethanesulfonamide]
> 7.60	Cc1noc(C[C@@H](C(=O)N2CCOCC2)N2CC[C@H](NS(=O)(=O)CCc3ccc(Cl)s3)C2=O)n1 [Example 78, 2-(5-chloro-2-thienyl)-N-{(3S)-1-[(1S)-1-[(3-methyl-1,2,4-oxadiazol-5-yl)methyl]-2-(4-morpholinyl)-2-oxoethyl]-2-oxo-3-pyrrolidinyl}ethanesulfonamide]
> 7.30	Cc1noc(C[C@@H](C(=O)N2CCOCC2)N2CC[C@H](N(C)S(=O)(=O)CCc3ccc(Cl)s3)C2=O)n1 [Example 79, 2-(5-chloro-2-thienyl)-N-methyl-N-{(3S)-1-[(1S)-1-[(3-methyl-1,2,4-oxadiazol-5-yl)methyl]-2-(4-morpholinyl)-2-oxoethyl]-2-oxo-3-pyrrolidinyl}ethanesulfonamide]
> 7.30	Cn1cnc(C[C@@H](C(=O)N2CCOCC2)N2CC[C@H](NS(=O)(=O)CCc3ccc(Cl)s3)C2=O)n1 [Example 80, 2-(5-chloro-2-thienyl)-N-{(3S)-1-[(1S)-1-[(1-methyl-1H-1,2,4-triazol-3-yl)methyl]-2-(4-morpholinyl)-2-oxoethyl]-2-oxo-3-pyrrolidinyl}ethanesulfonamide]
> 7.00	Cn1ncnc1C[C@@H](C(=O)N1CCOCC1)N1CC[C@H](NS(=O)(=O)CCc2ccc(Cl)s2)C1=O [Example 81, 2-(5-chloro-2-thienyl)-N-{(3S)-1-[(1S)-1-[(1-methyl-1H-1,2,4-triazol-5-yl)methyl]-2-(4-morpholinyl)-2-oxoethyl]-2-oxo-3-pyrrolidinyl}ethanesulfonamide]
> 7.00	Cc1noc(C[C@@H](C(=O)N2CCOCC2)N2CC[C@H](NS(=O)(=O)CCc3ccc(Cl)cc3)C2=O)n1 [Example 82, 2-(4-chlorophenyl)-N-{(3S)-1-[(1S)-1-[(3-methyl-1,2,4-oxadiazol-5-yl)methyl]-2-(4-morpholinyl)-2-oxoethyl]-2-oxo-3-pyrrolidinyl}ethanesulfonamide]
> 7.30	CN(Cc1ccccc1)C(=O)C[C@@H](C(=O)N1CCOCC1)N1CC[C@H](NS(=O)(=O)CCc2ccc(Cl)s2)C1=O [Example 83, (3S)-3-[(3S)-3-({[2-(5-chloro-2-thienyl)ethyl]sulfonyl)amino)-2-oxo-1-pyrrolidinyl]-N-methyl-4-(4-morpholinyl)-4-oxo-N-(phenylmethyl)butanamide]
> 8.00	CC(C)OC[C@@H](C(=O)N1CCOCC1)N1CC[C@H](NS(=O)(=O)CCc2ccc(Cl)s2)C1=O [Example 84, 2-(5-chloro-2-thienyl)-N-{(3S)-1-[(1S)-1-{[(1-methylethyl)oxy]methyl}-2-(4-morpholinyl)-2-oxoethyl]-2-oxo-3-pyrrolidinyl}ethanesulfonamide]
